The text below walks through data of patent US12545699B2, “Bivalent LECA inhibitors targeting biofilm formation of Pseudomonas aeruginosa” (HELMHOLTZ-ZENTRUM FÜR INFEKTIONSFORSCHUNG GMBH, priority 2019, dated 2026).

In general, koff refers to the rate constant with which the complex falls apart. Usually IC50 stands for the concentration that inhibits the measured activity by half. For orientation: Kd means the free concentration of one partner at which half of the binding sites on the other are occupied at equilibrium, for simple one-to-one binding. High values mean weaker binding, low ones tighter binding.

Experiment [1] has as its target T1, LecA (Pseudomonas aeruginosa, UniProt Q05097).
T1 construct: made in house
Nature of the experiment: surface plasmon resonance (SPR) direct binding to immobilised LecA. The procedure: All experiments were performed on a BIACORE X100 instrument (GE Healthcare) at 25° C. and a flow rate of 10 μL min^−1. […] LecA was dissolved in 10 mM sodium acetate pH 4.5 (100 μg mL^−1) and injected over the activated chip surface on channel 2 (contact time of 540 s) until the response of ˜4000 RU was reached. Excess free amine groups were capped with an injection of 1 M ethanolamine (contact time 540 s). Bivalent compounds were dissolved in 100% DMSO and subsequently diluted to required concentrations in a running buffer (10 mM phosphate buffer pH 7.4, 2.7 mM KCl, 137 mM NaCl, 100 μM CaCl2, 0.05% Tween 20, 5% DMSO). The bivalent analytes were subjected to single-cycle kinetics analyses (contact time of 120 s and dissociation time of 120 s) consisting of injections of the analytes at 0, 10, 50, 100, and 200 nM over the immobilised-LecA. The chip surface was regenerated by 5× injections of 100 μM 4-nitrophenyl-β-D-galactose (contact time of 120 s). KD determination was performed using BIACORE X100 evaluation software (version 2.0) by applying 1:1 binding model to fit the experimental data. • [1] H. E. Gottlieb, V. Kotlyar, A. Nudelman, J. Org. Chem. 1997, 62, 7512-7515. • [2] M. Seligman, J. Biol. Chem. 1952, 195, 239-249. • [3] S. T. Xue, W. Y. He, L. L. Ma, H. Q. Wang, B. Wang, G. H. Zheng, X. Y. Ji, T. Zhang, Y. H. Li, J. D. Jiang, et al., Molecules 2013, 18, 3789-3805. • [4] Y. Li, H. Mo, G. Lian, B. Yu, Carbohydr. Res. 2012, 363, 14-22. • [5] F. Yang, F. Xie, Y. Zhang, Y. Xia, W. Liu, F. Jiang, C. Lam, Y. Qiao, D. Xie, J. Li, et al., Bioorganic Med. Chem. Lett. 2017, 27, 2166-2170. Synthesis Schemes and Results of Biophysical Assays
For orientation: In SPR one partner is held on a chip, and binding of the other changes the refractive index at the surface.

Experiment [2] has as its target T1, LecA. Description: competitive binding assay based on fluorescence polarisation (FP). The procedure:
Binding of ligands to LecA was evaluated in competitive assay based on fluorescence polarisation.
(In fluorescence polarisation assays a small probe gives low polarisation when free and higher when bound to something large.)

The mark [3] stands for this setting: FP IC50, Table 1, 20 μM LecA, 10 nM reporter ligand 8, TBS/Ca2+ buffer with 25% DMSO (**).
The mark [4] stands for this setting: IC50, Table 3, TBS/Ca2+ buffer in presence of 25% DMSO.

T1 sequence (Q05097 whole entry): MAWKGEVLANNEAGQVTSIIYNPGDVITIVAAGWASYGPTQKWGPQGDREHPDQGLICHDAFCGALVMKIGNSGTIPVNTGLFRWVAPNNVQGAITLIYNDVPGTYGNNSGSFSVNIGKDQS

At LecA [1], `O=C(CCc1ccc(O[C@@H]2O[C@H](CO)[C@H](O)[C@H](O)[C@H]2O)cc1)Nc1ccc(Oc2ccc(NC(=O)CCc3ccc(O[C@@H]4O[C@H](CO)[C@H](O)[C@H](O)[C@H]4O)cc3)cc2)cc1` [Compound G30] displayed an off-rate (koff) of 0.00349 ± 8e-05 s⁻¹.

`O=C(NN=Cc1ccc(OCCCCOc2ccc(C=NNC(=O)c3ccc(OC4OC(CO)C(O)C(O)C4O)cc3)cc2)cc1)c1ccc(OC2OC(CO)C(O)C(O)C2O)cc1` (stereo not drawn) [Compound E6p] came in with an IC50 at LecA [2] (setting [3]) of 4.9 ± 1.4 µM. The compound also displayed a Kd on LecA [1] of 94 ± 28.9 nM.

With `O=C(NN=Cc1ccc(OCCCOc2ccc(C=NNC(=O)c3ccc(OC4OC(CO)C(O)C(O)C4O)cc3)cc2)cc1)c1ccc(OC2OC(CO)C(O)C(O)C2O)cc1` (stereo not drawn) [Compound D6p], the 50% inhibitory concentration (IC50) on LecA [2] (setting [3]) was found to be 3.6 ± 1.7 µM. Also, at LecA [1], the Kd is 50 ± 19.4 nM.

`O=C(/C=C/c1ccc(O[C@@H]2O[C@H](CO)[C@H](O)[C@H](O)[C@H]2O)cc1)Nc1ccc(OCCCOc2ccc(NC(=O)/C=C/c3ccc(O[C@@H]4O[C@H](CO)[C@H](O)[C@H](O)[C@H]4O)cc3)cc2)cc1` [Compound J18] registered a koff at LecA [1] of 0.00251 ± 0.00022 s⁻¹.

`O=C(CCc1ccc(O[C@@H]2O[C@H](CO)[C@H](O)[C@H](O)[C@H]2O)cc1)Nc1ccc(OCCOc2ccc(NC(=O)CCc3ccc(O[C@@H]4O[C@H](CO)[C@H](O)[C@H](O)[C@H]4O)cc3)cn2)nc1` [Compound M31]: the IC50 on LecA [2] (setting [4]) was found to be 4.1 ± 2.2 µM. The compound further returned a koff on LecA [1] of 0.00141 ± 5e-05 s⁻¹.

The compound `O=C(CCc1ccc(O[C@@H]2O[C@H](CO)[C@H](O)[C@H](O)[C@H]2O)cc1)Nc1ccc(OCCCOc2ccc(NC(=O)CCc3ccc(O[C@@H]4O[C@H](CO)[C@H](O)[C@H](O)[C@H]4O)cc3)cc2)cc1` [Compound J30] showed a koff at LecA [1] of 0.00345 ± 0.00013 s⁻¹.

On to `NNC(=O)c1ccc(O[C@@H]2OC(CO)[C@H](O)C(O)C2O)cc1` (stereo partly drawn) [reference compound], for which the IC50 at LecA [2] (FP IC50, Table 1, 20 μM LecA, 10 nM reporter ligand 8, TBS/Ca2+ buffer with 4% DMSO (*)) was 22.6 ± 8.7 µM; on LecA [2] (setting [3]) it was 30.3 µM.

`O=C(CCc1ccc(O[C@@H]2O[C@H](CO)[C@H](O)[C@H](O)[C@H]2O)cc1)Nc1ccc(OCCOc2ccc(NC(=O)CCc3ccc(O[C@@H]4O[C@H](CO)[C@H](O)[C@H](O)[C@H]4O)cc3)cc2)cc1` [Compound I30] returned a koff at LecA [1] of 0.00284 ± 6e-05 s⁻¹.

Take `O=C(CCc1ccc(O[C@@H]2O[C@H](CO)[C@H](O)[C@H](O)[C@H]2O)cc1)Nc1ccc(OCCCOc2ccc(NC(=O)CCc3ccc(O[C@@H]4O[C@H](CO)[C@H](O)[C@H](O)[C@H]4O)cc3)cn2)nc1` [Compound N31]: on LecA [2] (setting [4]), the IC50 was determined as 2.7 ± 1.1 µM.

At LecA [1], `O=C(NN=Cc1ccc(OCCCOc2ccc(C=NNC(=O)c3cccc(OC4OC(CO)C(O)C(O)C4O)c3)cc2)cc1)c1cccc(OC2OC(CO)C(O)C(O)C2O)c1` (stereo not drawn) [Compound D6m] had a Kd of 65.9 ± 6.2 nM.

In the case of `O=C(NN=Cc1ccc(OCCCCOc2ccc(C=NNC(=O)c3cccc(OC4OC(CO)C(O)C(O)C4O)c3)cc2)cc1)c1cccc(OC2OC(CO)C(O)C(O)C2O)c1` (stereo not drawn) [Compound E6m], the IC50 on LecA [2] (setting [3]) turned out to be 6.3 ± 6.4 µM. On LecA [1], this compound returned an equilibrium dissociation constant (Kd) of 25.7 ± 19.2 nM.

Compound `O=C(NN=Cc1ccc(Oc2ccc(C=NNC(=O)c3cccc(OC4OC(CO)C(O)C(O)C4O)c3)cc2)cc1)c1cccc(OC2OC(CO)C(O)C(O)C2O)c1` (stereo not drawn) [Compound A6m] showed an IC50 at LecA [2] (setting [3]) of 4.1 ± 3 µM. At LecA [1], this compound showed a Kd of 16.6 ± 2 nM.

`O=C(NN=Cc1ccc(OCCOc2ccc(C=NNC(=O)c3cccc(OC4OC(CO)C(O)C(O)C4O)c3)cc2)cc1)c1cccc(OC2OC(CO)C(O)C(O)C2O)c1` (stereo not drawn) [Compound C6m]: the IC50 on LecA [2] (setting [3]) came to 2 ± 1.9 µM. Besides, binding at LecA [1] was put at a Kd of 14.9 ± 11.9 nM.

With `O=C(/C=C/c1ccc(O[C@@H]2O[C@H](CO)[C@H](O)[C@H](O)[C@H]2O)cc1)Nc1ccc(OCCCOc2ccc(NC(=O)/C=C/c3ccc(O[C@@H]4O[C@H](CO)[C@H](O)[C@H](O)[C@H]4O)cc3)cn2)nc1` [Compound N32], the IC50 at LecA [2] (setting [4]) is 4.3 ± 2 µM.

Take `O=C(/C=C/c1ccc(O[C@@H]2O[C@H](CO)[C@H](O)[C@H](O)[C@H]2O)cc1)Nc1ccc(OCCCCOc2ccc(NC(=O)/C=C/c3ccc(O[C@@H]4O[C@H](CO)[C@H](O)[C@H](O)[C@H]4O)cc3)cc2)cc1` [Compound K18]: the koff on LecA [1] was determined as 0.00388 ± 0.00043 s⁻¹.

Regarding `O=C(CCc1ccc(O[C@@H]2O[C@H](CO)[C@H](O)[C@H](O)[C@H]2O)cc1)Nc1ccc(OCOc2ccc(NC(=O)CCc3ccc(O[C@@H]4O[C@H](CO)[C@H](O)[C@H](O)[C@H]4O)cc3)cc2)cc1` [Compound H30], the off-rate (koff) on LecA [1] was found to be 0.00462 ± 0.0002 s⁻¹.

For the compound `O=C(CCc1ccc(O[C@@H]2O[C@H](CO)[C@H](O)[C@H](O)[C@H]2O)cc1)Nc1ccc(OCCCCOc2ccc(NC(=O)CCc3ccc(O[C@@H]4O[C@H](CO)[C@H](O)[C@H](O)[C@H]4O)cc3)cc2)cc1` [Compound K30], the koff on LecA [1] came to 0.00366 ± 0.00042 s⁻¹.

In turn, `O=C(NN=Cc1ccc(OCCOc2ccc(C=NNC(=O)c3ccc(OC4OC(CO)C(O)C(O)C4O)cc3)cc2)cc1)c1ccc(OC2OC(CO)C(O)C(O)C2O)cc1` (stereo not drawn) [Compound C6p] had a 50% inhibitory concentration (IC50) on LecA [2] (setting [3]) of 3.8 ± 1.6 µM. Further, the Kd on LecA [1] was found to be 41.7 ± 23.9 nM.

In turn, `O=C(NN=Cc1ccc(OCOc2ccc(C=NNC(=O)c3cccc(OC4OC(CO)C(O)C(O)C4O)c3)cc2)cc1)c1cccc(OC2OC(CO)C(O)C(O)C2O)c1` (stereo not drawn) [Compound B6m] yielded an IC50 at LecA [2] (setting [3]) of 3.1 ± 2 µM. Also, at LecA [1], binding was put at a Kd of 14.3 ± 6 nM.

Consider `O=C(/C=C/c1ccc(O[C@@H]2O[C@H](CO)[C@H](O)[C@H](O)[C@H]2O)cc1)Nc1ccc(Oc2ccc(NC(=O)/C=C/c3ccc(O[C@@H]4O[C@H](CO)[C@H](O)[C@H](O)[C@H]4O)cc3)cc2)cc1` [Compound G18], for which the koff on LecA [1] stood at 0.00596 ± 0.00206 s⁻¹.

For the compound `O=C(CCc1ccc(O[C@@H]2O[C@H](CO)[C@H](O)[C@H](O)[C@H]2O)cc1)Nc1ccc(OCCCCOc2ccc(NC(=O)CCc3ccc(O[C@@H]4O[C@H](CO)[C@H](O)[C@H](O)[C@H]4O)cc3)cn2)nc1` [Compound O31], the IC50 at LecA [2] (setting [4]) turned out to be 3.2 ± 1.8 µM.

Consider `O=C(/C=C/c1ccc(O[C@@H]2O[C@H](CO)[C@H](O)[C@H](O)[C@H]2O)cc1)Nc1ccc(OCOc2ccc(NC(=O)/C=C/c3ccc(O[C@@H]4O[C@H](CO)[C@H](O)[C@H](O)[C@H]4O)cc3)cc2)cc1` [Compound H18], for which the koff on LecA [1] was 0.00379 ± 0.00089 s⁻¹.

With `O=C(NN=Cc1ccc(Oc2ccc(C=NNC(=O)c3ccc(OC4OC(CO)C(O)C(O)C4O)cc3)cc2)cc1)c1ccc(OC2OC(CO)C(O)C(O)C2O)cc1` (stereo not drawn) [Compound A6p], at LecA [2] (setting [3]), the IC50 turned out to be 4.3 ± 2.3 µM. The compound also gave a Kd on LecA [1] of 21.7 ± 7.6 nM.

In turn, `O=C(/C=C/c1ccc(O[C@@H]2O[C@H](CO)[C@H](O)[C@H](O)[C@H]2O)cc1)Nc1ccc(OCCOc2ccc(NC(=O)/C=C/c3ccc(O[C@@H]4O[C@H](CO)[C@H](O)[C@H](O)[C@H]4O)cc3)cc2)cc1` [Compound I18] returned a koff at LecA [1] of 0.00249 ± 0.00028 s⁻¹.

`O=C(NN=Cc1ccc(OCOc2ccc(C=NNC(=O)c3ccc(OC4OC(CO)C(O)C(O)C4O)cc3)cc2)cc1)c1ccc(OC2OC(CO)C(O)C(O)C2O)cc1` (stereo not drawn) [Compound B6p] yielded an IC50 at LecA [2] (setting [3]) of 3.7 ± 1.8 µM. Besides, the affinity on LecA [1], expressed as Kd, was 30.5 ± 28 nM.

With `O=[N+]([O-])c1ccc(O[C@@H]2O[C@H](CO)[C@H](O)[C@H](O)[C@H]2O)cc1` [pNO2-Ph-β-Gal, reference compound], the IC50 on LecA [2] (setting [4]) was found to be 40.4 ± 12.9 µM.

On to `O=C(NCc1cn(CCOCCOCCOCCNC(=S)Nc2ccc3c(c2)C(=O)OC32c3ccc(O)cc3Oc3cc(O)ccc32)nn1)c1ccc(C(Oc2ccc(/C=N/NC(=O)c3ccc(O[C@@H]4OC(CO)[C@H](O)C(O)C4O)cc3)cc2)Oc2ccc(/C=N/NC(=O)c3ccc(O[C@@H]4OC(CO)[C@H](O)C(O)C4O)cc3)cc2)cc1` (stereo partly drawn) [Compound 13], for which, on LecA [1], the Kd worked out at 37.2 ± 2.9 nM and the koff came to 0.00593 ± 0.00051 s⁻¹. Moreover, at LecA [1] (Table 2, SPR, three independent experiments), the kon is on record as 160 ± 19 ×10^3/Ms.

For `O=C(/C=C/c1ccc(O[C@@H]2O[C@H](CO)[C@H](O)[C@H](O)[C@H]2O)cc1)Nc1ccc(OCCOc2ccc(NC(=O)/C=C/c3ccc(O[C@@H]4O[C@H](CO)[C@H](O)[C@H](O)[C@H]4O)cc3)cn2)nc1` [Compound M32], the IC50 on LecA [2] (setting [4]) was 7.5 ± 3.7 µM. On LecA [1], this compound had a koff of 0.00165 ± 0.00012 s⁻¹.
